# Patent US20250179061A1 (SIRONAX LTD., priority 2022, published 2025)
# Tested on: HT-29 cells
# Assay: HT-29 necroptosis cell viability assay (TNF-α/SMAC mimetic/zVAD-FMK, CellTiter-Glo)
# Assay type: cell-based
# Conditions: Homo sapiens, HT-29, HT-29 necroptosis cell viability, IC50 class symbols; read-out: Activity
# How it was run: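 HT-29 cells (~5,000/well, overnight) in FBS-free McCoy's 5A with TNF-α 10 ng/ml, SMAC mimetic 6 μM and zVAD-FMK 10 μM plus 10-point 1:3 compound titration, 20 h at 37°C. ATP measured by CellTiter-Glo luminescence; IC50 as geometric mean of duplicates.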
row,Structure (SMILES),IC50 [nM]
1,"C[C@H]1C[C@@H](O)CN1c1cc(Oc2ccc(-n3ncn(Cc4c(F)cccc4F)c3=O)cc2)ccn1 [Example 289, 4-(2,6-difluorobenzyl)-2-(4-((2-((2S,4R)-4-hydroxy-2-methylpyrrolidin-1-yl)pyridin-4-yl)oxy)phenyl)-2,4-dihydro-3H-1,2,4-triazol-3-one]",< 100
2,"Cc1cnc(Cl)cc1Oc1ccc(-n2ncn(Cc3c(F)cccc3F)c2=O)cc1Cl [Example 290, 2-(3-chloro-4-((2-chloro-5-methylpyridin-4-yl)oxy)phenyl)-4-(2,6-difluorobenzyl)-2,4-dihydro-3H-1,2,4-triazol-3-one]",< 100
3,"C[C@H]1[C@@H](NC(=O)OC(C)(C)C)CN1c1cc(Oc2ccc(-n3ncn(Cc4c(F)cccc4F)c3=O)cc2F)c(F)cn1 [Example 291, tert-butyl ((2S,3S)-1-(4-(4-(4-(2,6-difluorobenzyl)-5-oxo-4,5-dihydro-1H-1,2,4-triazol-1-yl)-2-fluorophenoxy)-5-fluoropyridin-2-yl)-2-methylazetidin-3-yl)carbamate]",< 100
4,"CC1(C#N)CN(c2cc(Oc3ccc(-n4nc5n(c4=O)C(c4ccccc4)CC5)cc3F)c(F)cn2)C1 (stereo not shown) [Example 292, 1-(5-fluoro-4-(2-fluoro-4-(3-oxo-5-phenyl-6,7-dihydro-3H-pyrrolo[2,1-c][1,2,4]triazol-2(5H)-yl)phenoxy)pyridin-2-yl)-3-methylazetidine-3-carbonitrile]",< 100
5,"CC(C)(O)C1CCN1c1cc(Oc2ccc(-n3ncn(Cc4c(F)cccc4F)c3=O)cc2F)c(F)cn1 (stereo not shown) [Example 293, 4-(2,6-difluorobenzyl)-2-(3-fluoro-4-((5-fluoro-2-(2-(2-hydroxypropan-2-yl)azetidin-1-yl)pyridin-4-yl)oxy)phenyl)-2,4-dihydro-3H-1,2,4-triazol-3-one]",< 100
6,"Cc1cnc(N2CC(C)(C#N)C2)cc1Oc1ccc(-n2ncn(Cc3c(F)cccc3F)c2=O)cc1F [Example 294, 1-(4-(4-(4-(2,6-difluorobenzyl)-5-oxo-4,5-dihydro-1H-1,2,4-triazol-1-yl)-2-fluorophenoxy)-5-methylpyridin-2-yl)-3-methylazetidine-3-carbonitrile]",< 100
7,"Cc1nc(N2CCOCC2)sc1Oc1ccc(-n2ncn(Cc3c(F)cccc3F)c2=O)cc1F [Example 295, 4-(2,6-difluorobenzyl)-2-(3-fluoro-4-((4-methyl-2-morpholinothiazol-5-yl)oxy)phenyl)-2,4-dihydro-3H-1,2,4-triazol-3-one]",< 100
8,"Cc1nc(N2CCN(C)CC2)sc1Oc1ccc(-n2ncn(Cc3c(F)cccc3F)c2=O)cc1F [Example 296, 4-(2,6-difluorobenzyl)-2-(3-fluoro-4-((4-methyl-2-(4-methylpiperazin-1-yl)thiazol-5-yl)oxy)phenyl)-2,4-dihydro-3H-1,2,4-triazol-3-one]",< 100
9,"C[C@H]1CCCN1c1cc(Oc2ccc(-n3ncn(Cc4c(F)cccc4F)c3=O)cc2F)c(F)cn1 [Example 297, (S)-4-(2,6-difluorobenzyl)-2-(3-fluoro-4-((5-fluoro-2-(2-methylpyrrolidin-1-yl)pyridin-4-yl)oxy)phenyl)-2,4-dihydro-3H-1,2,4-triazol-3-one]",< 100
10,"Cc1nc(NC2=NC(C)(C)CO2)sc1Oc1ccc(-n2ncn(Cc3c(F)cccc3F)c2=O)cc1Cl [Example 298, 2-(3-chloro-4-((2-((4,4-dimethyl-4,5-dihydrooxazol-2-yl)amino)-4-methylthiazol-5-yl)oxy)phenyl)-4-(2,6-difluorobenzyl)-2,4-dihydro-3H-1,2,4-triazol-3-one]",< 100
11,"Cc1nc(N2CC(C)(O)C2)sc1Oc1ccc(-n2ncn(Cc3c(F)cccc3F)c2=O)cc1F [Example 299, 4-(2,6-difluorobenzyl)-2-(3-fluoro-4-((2-(3-hydroxy-3-methylazetidin-1-yl)-4-methylthiazol-5-yl)oxy)phenyl)-2,4-dihydro-3H-1,2,4-triazol-3-one]",< 100
12,"O=c1n(Cc2c(F)cccc2F)cnn1-c1ccc(Oc2ccnc(N3CC4(CCO4)C3)c2)cc1 [Example 300, 4-[(2,6-difluorophenyl)methyl]-2-[4-[[2-(1-oxa-6-azaspiro[3.3]heptan-6-yl)-4-pyridyl]oxy]phenyl]-1,2,4-triazol-3-one]",100 to 1000
13,"CCOC1CN(c2cc(Oc3ccc(-n4nc5n(c4=O)C(c4ccccc4)CC5)cc3)ccn2)C1 (stereo not shown) [Example 301, 2-[4-[[2-(3-ethoxyazetidin-1-yl)-4-pyridyl]oxy]phenyl]-5-phenyl-6,7-dihydro-5H-pyrrolo[2,1-c][1,2,4]triazol-3-one]",< 100
14,"COC1(C#N)CN(c2cc(Oc3ccc(-n4ncn(Cc5c(F)cccc5F)c4=O)cc3)c(F)cn2)C1 [Example 302, 1-(4-(4-(4-(2,6-difluorobenzyl)-5-oxo-4,5-dihydro-1H-1,2,4-triazol-1-yl)phenoxy)-5-fluoropyridin-2-yl)-3-methoxyazetidine-3-carbonitrile]",< 100
15,"CC(C)(C)OC1CN(c2nccc(Oc3ccc(-n4ncn(Cc5c(F)cccc5F)c4=O)cc3)c2F)C1 [Example 303, 2-(4-((2-(3-(tert-butoxy)azetidin-1-yl)-3-fluoropyridin-4-yl)oxy)phenyl)-4-(2,6-difluorobenzyl)-2,4-dihydro-3H-1,2,4-triazol-3-one]",< 100
16,"CCOC1CN(c2nccc(Oc3ccc(-n4nc(C)n(Cc5ccccc5)c4=O)cc3)c2F)C1 [Example 304, 4-benzyl-2-[4-[[2-(3-ethoxyazetidin-1-yl)-3-fluoro-4-pyridyl]oxy]phenyl]-5-methyl-1,2,4-triazol-3-one]",100 to 1000
17,"CCOC1CN(c2nccc(Cl)c2Oc2ccc(-n3nc(C)n(Cc4ccccc4)c3=O)cc2)C1 [Example 305, 4-benzyl-2-[4-[[4-chloro-2-(3-ethoxyazetidin-1-yl)-3-pyridyl]oxy]phenyl]-5-methyl-1,2,4-triazol-3-one]",100 to 1000
18,"O=c1n(Cc2c(F)cccc2F)cnn1-c1ccc(Oc2ccnc(NC34CC(C3)C4)c2)cc1 [Example 306, 2-[4-[[2-(1-bicyclo[1.1.1]pentanylamino)-4-pyridyl]oxy]phenyl]-4-[(2,6-difluorophenyl)methyl]-1,2,4-triazol-3-one]",100 to 1000
19,"O=c1n(Cc2c(F)cccc2F)cnn1-c1ccc(Oc2c(N3CC4(CCOCC4)C3)ccnc2Cl)cc1 [Example 307, 2-(4-((2-chloro-4-(7-oxa-2-azaspiro[3.5]nonan-2-yl)pyridin-3-yl)oxy)phenyl)-4-(2,6-difluorobenzyl)-2,4-dihydro-3H-1,2,4-triazol-3-one]",100 to 1000
20,"Cc1cc(-n2ncn(Cc3c(F)cccc3F)c2=O)ccc1Oc1cc(NC23CC(C#N)(C2)C3)ncc1F [Example 308, 3-((4-(4-(4-(2,6-difluorobenzyl)-5-oxo-4,5-dihydro-1H-1,2,4-triazol-1-yl)-2-methylphenoxy)-5-fluoropyridin-2-yl)amino)bicyclo[1.1.1]pentane-1-carbonitrile]",100 to 1000
21,"CC(C)(C)OC(=O)Nc1cc(Oc2ccc(-n3ncn(Cc4c(F)cccc4F)c3=O)cc2)ccn1 [Example 309, tert-butyl (4-(4-(4-(2,6-difluorobenzyl)-5-oxo-4,5-dihydro-1H-1,2,4-triazol-1-yl)phenoxy)pyridin-2-yl)carbamate]",< 100
22,"Nc1cc(Oc2ccc(-n3ncn(Cc4c(F)cccc4F)c3=O)cc2)ccn1 [Example 310, 2-(4-((2-aminopyridin-4-yl)oxy)phenyl)-4-(2,6-difluorobenzyl)-2,4-dihydro-3H-1,2,4-triazol-3-one]",100 to 1000
